Assay results as given in US20060240048A1 (priority 2002, published 2006).

Molecular target: T1, human cannabinoid CB2 receptor (Homo sapiens, UniProt P34972)
T1 construct: expressed in transfected cells; host or cells: Saccharomyces cerevisiae strain MMY23
Test: Cannabinoid CB2 receptor agonist activity, yeast reporter assay (FDGlu fluorescence);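 for Emax: 100% equals maximal response of reference agonist HU210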
Type: cell-based
Conditions: for Emax: read-out: efficacy value (Emax) at the cloned human cannabinoid CB2 receptor

T1 sequence (P34972 whole entry): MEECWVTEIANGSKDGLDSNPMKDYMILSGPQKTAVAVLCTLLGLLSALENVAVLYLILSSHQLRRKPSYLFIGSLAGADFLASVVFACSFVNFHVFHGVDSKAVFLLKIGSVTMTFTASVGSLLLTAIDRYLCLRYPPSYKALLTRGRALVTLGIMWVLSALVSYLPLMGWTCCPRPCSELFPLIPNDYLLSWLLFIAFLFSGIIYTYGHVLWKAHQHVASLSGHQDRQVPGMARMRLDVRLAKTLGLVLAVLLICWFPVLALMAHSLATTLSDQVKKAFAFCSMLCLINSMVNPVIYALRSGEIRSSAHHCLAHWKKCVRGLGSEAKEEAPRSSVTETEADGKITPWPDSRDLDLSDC

O=C(NCC1CCOCC1)c1cnc(Nc2ccc(Cl)c(Cl)c2)cc1C(F)(F)F [Example 155, N-(Tetrahydropyran-4-yl-methyl)-6-(3,4-dichloro-phenylamino)-4-trifluoro-methyl-nicotinamide]
EC50: < 300 nM | Emax: > 50%

O=C(NCC1CCCC1)c1cnc(Nc2ccc(Cl)c(Cl)c2)cc1C(F)(F)F [Example 156, N-Cyclopentylmethyl-6-(3,4-dichloro-phenylamino)-4-tri-fluoromethyl-nicotinamide]
EC50: < 300 nM | Emax: > 50%

O=C(NCC1CCC1)c1cnc(Nc2ccc(Cl)c(Cl)c2)cc1C(F)(F)F [Example 157, N-Cyclobutylmethyl-6-(3,4-dichloro-phenylamino)-4-tri-fluoromethyl-nicotinamide]
EC50: < 300 nM | Emax: > 50%

O=C(NCC1CC1)c1cnc(Nc2ccc(Cl)c(Cl)c2)cc1C(F)(F)F [Example 158, N-Cyclopropylmethyl-6-(3,4-dichloro-phenylamino)-4-tri-fluoromethyl-nicotinamide]
EC50: < 300 nM | Emax: > 50%

O=C(NCC1CCCCC1)c1cnc(Nc2ccc(Cl)c(Cl)c2)cc1C(F)(F)F [Example 159, N-Cyclohexylmethyl-6-(3,4-dichloro-phenylamino)-4-tri-fluoromethyl-nicotinamide]
EC50: < 300 nM | Emax: > 50%

O=C(NCC1CCC1)c1cnc(Nc2ccc(Cl)cc2F)cc1C(F)(F)F [Example 160, N-Cyclobutylmethyl-6-(2-fluoro-4-chloro-phenyl-amino)-4-trifluoromethyl-nicotinamide]
EC50: < 300 nM | Emax: > 50%

O=C(NCC1CCCC1)c1cnc(Nc2ccc(Cl)cc2F)cc1C(F)(F)F [Example 161, N-Cyclopentylmethyl-6-(2-fluoro-4-chloro-phenyl-amino)-4-trifluoromethyl-nicotinamide]
EC50: < 300 nM | Emax: > 50%

O=C(NCC1CCOCC1)c1cnc(Nc2ccc(Cl)cc2F)cc1C(F)(F)F [Example 162, N-(Tetrahydropyran-4-yl-methyl)-6-(2-fluoro-4-chloro-phenylamino)-4-trifluoro-methyl-nicotinamide]
EC50: < 300 nM | Emax: > 50%

O=C(NCC1CCC1)c1cnc(Nc2ccc(F)cc2Cl)cc1C(F)(F)F [Example 163, N-Cyclobutylmethyl-6-(2-Chloro-4-fluoro-phenyl-amino)-4-trifluoromethyl-nicotinamide]
EC50: < 300 nM | Emax: > 50%

O=C(NCC1CCCC1)c1cnc(Nc2ccc(F)cc2Cl)cc1C(F)(F)F [Example 164, N-Cyclopentylmethyl-6-(2-Chloro-4-fluoro-phenyl-amino)-4-trifluoromethyl-nicotinamide]
EC50: < 300 nM | Emax: > 50%

O=C(NCC1CCOCC1)c1cnc(Nc2ccc(F)cc2Cl)cc1C(F)(F)F [Example 165, N-(Tetrahydropyran-4-yl-methyl)-6-(2-chloro-4-fluoro-phenylamino)-4-trifluoro-methyl-nicotinamide]
EC50: < 300 nM | Emax: > 50%

O=C(NCC1CCC1)c1cnc(Nc2ccc(F)cc2F)cc1C(F)(F)F [Example 166, N-Cyclobutylmethyl-6-(2,4-difluoro-phenylamino)-4-tri-fluoromethyl-nicotinamide]
EC50: < 300 nM | Emax: > 50%

O=C(NCC1CCCC1)c1cnc(Nc2ccc(F)cc2F)cc1C(F)(F)F [Example 167, N-Cyclopentylmethyl-6-(2,4-difluoro-phenylamino)-4-tri-fluoromethyl-nicotinamide]
EC50: < 300 nM | Emax: > 50%

COc1ccc(Cl)cc1Nc1cc(C(F)(F)F)c(C(=O)NCC2CCC2)cn1 [Example 169, N-Cyclobutylmethyl-6-(2-methoxy-5-chloro-phenyl-amino)-4-trifluoromethyl-nicotinamide]
Emax: > 50%

O=C(NCC1CCOCC1)c1cnc(Nc2cc(Cl)ccc2O)cc1C(F)(F)F [Example 170, N-(Tetrahydropyran-4-yl-methyl)-6-(2-hydroxy-5-chloro-phenylamino)-4-trifluoromethyl-nicotinamide]
EC50: < 300 nM | Emax: > 50%
